“And” between values parts separate entries of the source, which are not always exact repeats. Equal entries are not always repeated.
What was measured:
Anas platyrhynchos = conditions: short-term; oral; feed; mortality

With Cn1cc(C(=O)Nc2ccc(F)cc2-c2ccc(Cl)c(Cl)c2)c(C(F)F)n1 [Bixafen] the LD50 (Rattus norvegicus; acute, oral, mortality) was greater than 5000 mg/kg-day, the NOEL (Rattus norvegicus; chronic, body weight) was 33.3 mg/kg-day and the NOAEL (Rattus norvegicus; chronic, duration: 2 years, organ weight) was 2 mg/kg-day. The NOAEL (Rattus norvegicus; developmental, development) was 20 mg/kg-day, the NOAEL (Rattus norvegicus; subchronic, duration: 90 days, oral, organ weight) was 12.9 mg/kg-day and the LC50 (Colinus virginianus; acute, oral, diet, mortality) was greater than 1160 mg/kg-day. The LD50 (Colinus virginianus; acute, oral, mortality) was greater than 2000 mg/kg-day, the NOEC (Colinus virginianus; reproduction developmental) was 24.5 mg/kg-day and 30 mg/kg-day and the LC50 (Anas platyrhynchos) was greater than 1550 mg/kg-day.

— EPA's ToxValDB 9.5 (doi:10.2903/j.efsa.2012.2917)
